In publication PMC5224920, “Assessing the mechanism and therapeutic potential of modulators of the human Mediator complex-associated protein kinases” (eLife, 2016):

Test system: 12 single or co-culture in vitro tissue models of primary cells
Experiment: Culture/co-culture cell model panel, extracellular biomarkers (DiscoveRx); as to CCL2/MCP-1: reference of the scale not given here; as to CD141/Thrombomodulin: reference of the scale not given here; as to CD142/Tissue Factor: reference of the scale not given here; as to CD38: reference of the scale not given here; as to CD40: reference of the scale not given here; as to CD69: reference of the scale not given here; as to CXCL8/IL-8: reference of the scale not given here; as to CXCL9/MIG: reference of the scale not given here; as to IL-1alpha: reference of the scale not given here; as to M-CSF: reference of the scale not given here; as to PBMC Cytotoxicity: reference of the scale not given here; as to SRB: reference of the scale not given here; as to sPGE2: reference of the scale not given here; as to sTNF-alpha: reference of the scale not given here
Assay type: cell-based, human
[1] = HDF3CGF stimulated fibroblasts, 1.00E3 nM
[2] = HDF3CGF stimulated fibroblasts, 1.00E4 nM
[3] = HPNo Huvec+PBMC unstimulated, 1.00E0 nM
[4] = HPNo Huvec+PBMC unstimulated, 1.00E1 nM
[5] = HPNo Huvec+PBMC unstimulated, 1.00E2 nM
[6] = HPNo Huvec+PBMC unstimulated, 1.00E3 nM
[7] = HPNo Huvec+PBMC unstimulated, 1.00E4 nM

## Cn1ncc2cc(-c3cnc(N)c(Cl)c3N3CCC4(CCNC4=O)CC3)ccc21 [CMPD 3]
[1]
  EGFR: -0.071
  M-CSF: -0.083
  MMP-1: 0.021
  PAI-I: -0.046
  Proliferation_72hr: -0.287
  SRB: -0.024
  TIMP-1: -0.058
  TIMP-2: 0.170
[2]
  CCL2/MCP-1: -0.120
  CD54/ICAM-1: -0.048
  CD106/VCAM-1: 0.030
  CXCL8/IL-8: -0.092
  CXCL9/MIG: -0.077
  CXCL10/IP-10: 0.009
  CXCL11/I-TAC: -0.045
  Collagen I: 0.097
  Collagen III: 0.0018
  EGFR: 0.023
  M-CSF: -0.150
  MMP-1: 0.056
  PAI-I: -0.210
  Proliferation_72hr: -0.515
  SRB: -0.209
  TIMP-1: -0.045
  TIMP-2: 0.276
[3]
  CCL2/MCP-1: 0.009
  CD38: 0.004
  CD40: -0.028
  CD106/VCAM-1: 0.042
  CD141/Thrombomodulin: 0.010
  CD142/Tissue Factor: 0.089
[4]
  CCL2/MCP-1: 0.017
  CD38: -0.049
  CD40: -0.059
  CD106/VCAM-1: 0.134
  CD141/Thrombomodulin: -0.016
  CD142/Tissue Factor: 0.039
[5]
  CCL2/MCP-1: 0.001
  CD38: -0.011
  CD40: -0.067
  CD106/VCAM-1: 0.206
  CD141/Thrombomodulin: 0.008
  CD142/Tissue Factor: 0.039
[6]
  CCL2/MCP-1: -0.049
  CD38: -0.041
  CD40: -0.024
  CD106/VCAM-1: 0.098
  CD141/Thrombomodulin: 0.007
  CD142/Tissue Factor: 0.007
[7]
  CCL2/MCP-1: -0.004
  CD38: -0.070
  CD40: -0.022
  CD106/VCAM-1: 0.069
  CD141/Thrombomodulin: 0.032
  CD142/Tissue Factor: -0.024
HPNo, 1.00E0 nM
  CD69: -0.011
  CXCL8/IL-8: 0.034
  CXCL9/MIG: 0.060
  M-CSF: 0.037
  SRB: -0.058
  sPGE2: 0.025
  sTNF-alpha: 0.138
HPNo, 1.00E1 nM
  CD69: -0.011
  CXCL8/IL-8: 0.00458
  CXCL9/MIG: 0.092
  M-CSF: 0.011
  SRB: -0.00131
  sPGE2: 0.022
  sTNF-alpha: 0.068
HPNo, 1.00E2 nM
  CD69: 0.017
  CXCL8/IL-8: -0.00647
  CXCL9/MIG: 0.045
  M-CSF: -0.043
  SRB: 0.006
  sPGE2: 0.139
  sTNF-alpha: 0.492
HPNo, 1.00E3 nM
  CD69: -0.017
  CXCL8/IL-8: -0.012
  CXCL9/MIG: 0.014
  M-CSF: -0.056
  SRB: 0.008
  sPGE2: 0.056
  sTNF-alpha: -0.00633
HPNo, 1.00E4 nM
  CD69: 0.004
  CXCL8/IL-8: -0.002
  CXCL9/MIG: -0.052
  M-CSF: -0.079
  SRB: -0.058
  sPGE2: 0.016
  sTNF-alpha: 0.025
LPS Huvec+PBMC, 1.00E0 nM
  CCL2/MCP-1: 0.009
  CD40: -0.011
  CD69: 0.028
  CD106/VCAM-1: 0.028
  CD141/Thrombomodulin: 0.019
  CD142/Tissue Factor: 0.057
  CXCL8/IL-8: 0.020
  IL-1alpha: 0.064
  M-CSF: 0.051
  SRB: -0.018
  sPGE2: 0.033
  sTNF-alpha: 0.017
LPS Huvec+PBMC, 1.00E1 nM
  CCL2/MCP-1: -0.00212
  CD40: -0.078
  CD69: -0.00157
  CD106/VCAM-1: 0.056
  CD141/Thrombomodulin: 0.042
  CD142/Tissue Factor: 0.050
  CXCL8/IL-8: -0.028
  IL-1alpha: -0.012
  M-CSF: -0.018
  SRB: -0.053
  sPGE2: 0.128
  sTNF-alpha: 0.024
LPS Huvec+PBMC, 1.00E2 nM
  CCL2/MCP-1: -0.069
  CD40: -0.092
  CD69: 0.048
  CD106/VCAM-1: 0.047
  CD141/Thrombomodulin: 0.046
  CD142/Tissue Factor: 0.071
  CXCL8/IL-8: -0.091
  IL-1alpha: -0.007
  M-CSF: -0.020
  SRB: -0.076
  sPGE2: 0.096
  sTNF-alpha: 0.028
LPS Huvec+PBMC, 1.00E3 nM
  CCL2/MCP-1: -0.112
  CD40: -0.089
  CD69: 0.015
  CD106/VCAM-1: 0.022
  CD141/Thrombomodulin: 0.052
  CD142/Tissue Factor: 0.071
  CXCL8/IL-8: -0.169
  IL-1alpha: -0.064
  M-CSF: -0.008
  SRB: -0.082
  sPGE2: 0.040
  sTNF-alpha: -0.030
LPS Huvec+PBMC, 1.00E4 nM
  CCL2/MCP-1: -0.187
  CD40: -0.133
  CD69: -0.043
  CD106/VCAM-1: 0.00362
  CD141/Thrombomodulin: 0.038
  CD142/Tissue Factor: 0.121
  CXCL8/IL-8: -0.222
  IL-1alpha: -0.226
  M-CSF: -0.022
  SRB: -0.142
  sPGE2: 0.008
  sTNF-alpha: -0.328
SAg, 1.00E0 nM
  CCL2/MCP-1: 0.030
  CD38: 0.023
  CD40: -0.041
  CD69: 0.00162
  CXCL8/IL-8: 0.064
  CXCL9/MIG: 0.013
  PBMC Cytotoxicity: 0.039
  Proliferation: 0.019
  SRB: -0.013
SAg, 1.00E1 nM
  CCL2/MCP-1: -0.016
  CD38: -0.043
  CD40: -0.128
  CD69: 0.037
  CXCL8/IL-8: -0.047
  CXCL9/MIG: -0.015
  PBMC Cytotoxicity: 0.014
  Proliferation: 0.030
  SRB: -0.033
SAg, 1.00E2 nM
  CCL2/MCP-1: -0.038
  CD38: -0.050
  CD40: -0.143
  CD69: 0.053
  CXCL8/IL-8: -0.167
  CXCL9/MIG: -0.040
  PBMC Cytotoxicity: 0.014
  Proliferation: 0.018
  SRB: -0.052
SAg, 1.00E3 nM
  CCL2/MCP-1: -0.092
  CD38: -0.050
  CD40: -0.108
  CD69: 0.059
  CXCL8/IL-8: -0.271
  CXCL9/MIG: -0.072
  PBMC Cytotoxicity: -0.014
  Proliferation: 0.007
  SRB: -0.055
SAg, 1.00E4 nM
  CCL2/MCP-1: -0.171
  CD38: -0.109
  CD40: -0.222
  CD69: -0.076
  CXCL8/IL-8: -0.221
  CXCL9/MIG: -0.086
  PBMC Cytotoxicity: -0.027
  Proliferation: -0.217
  SRB: -0.150
